Assay results: ChEMBL document CHEMBL1131056, “Rational design of antitumor prostaglandins with high biological stability” (J Med Chem, 1998)
Values after ≈ are worked out from the molar mass of the structure shown.

Test system: Colon 26
Assay: Antiproliferative Activity against colon 26 cancer cells
Assay type: functional, cell-based
Conditions: Mus musculus

**Q.** With `CCCCC[C@H](O)/C=C/[C@H]1C=CC(=O)/C1=C/CCCCCC(=O)O` as the molecule, how does the IC50 read?
**A.** 0.57 µg/mL (≈ 1.7 µM)

**Q.** How did the IC50 turn out when `CCCCCC/C=C/[C@@H]1C=CC(=O)/C1=C/CCCCCC(=O)O` was run?
**A.** 0.23 µg/mL (≈ 0.722 µM)

**Q.** How did the IC50 turn out when `CCCCC[C@@H](O)/C=C/[C@@H]1C=CC(=O)/C1=C/CCCCCC(=O)O` was run?
**A.** 0.5 µg/mL (≈ 1.49 µM)

**Q.** With `CCCCC[C@H](O)/C=C/[C@@H]1C=CC(=O)/C1=C/CCCCCC(=O)O` as the molecule, how does the IC50 read?
**A.** 0.35 µg/mL (≈ 1.05 µM)

Test system: A 172
Assay: Growth inhibition time for A172 Human Glioma cell growth at concentration 5 uM
Assay type: functional
Conditions: not given

**Q.** With `CCCCC[C@@H](O)/C=C/[C@@H]1C=CC(=O)/C1=C/CCCCCC(=O)OC` as the molecule, how does the Inhibition period read?
**A.** >72 h

**Q.** Which Inhibition period does the source give for `CCCCC[C@H](O)/C=C/[C@H]1C=CC(=O)/C1=C/CCCCCC(=O)OC` here?
**A.** <48 h

**Q.** Which Inhibition period does the source give for `CCCCC[C@H](O)/C=C/[C@@H]1C=CC(=O)/C1=C/CCCCCC(=O)OC` here?
**A.** >72 h
